How the values were obtained:
Settings in all cases: incubation time: 72 h
[1] = system: BT-474; assay: normalised viability (% of control), CellTiter-Blue; higher = more viable cells (about 100 = DMSO control)
How it was run: (§1)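 The reported figure is normalised viability at a single listed concentration of the series. Breast cancer cell lines (20 µl suspension) went onto 384-well plates holding compound in 5 µl medium for 72 h. CellTiter-Blue (2.5 µl, 2 h, 37 °C) was read by fluorescence at 560/590 nm, and each plate was scaled to vehicle at 100 and a positive kill control at 0.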

[2] = system: BT-549; assay: as above
How it was run: as §1

[3] = system: DU-4475; assay: as above
How it was run: as §1

[4] = system: HCC1143; assay: as above
How it was run: as §1

[5] = system: HCC1599; assay: as above
How it was run: as §1

[6] = system: HCC1937; assay: as above
How it was run: as §1

[7] = system: MDA-MB-436; assay: as above
How it was run: as §1

[8] = system: BT-474; assay: drug sensitivity score (DSS), CellTiter-Blue viability (DSS (AUC-based score)); higher = stronger viability inhibition; extreme values may be limits of the assay
Description: (§2)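 DSRT with the CellTiter-Blue (resazurin reduction) viability readout, fluorescence 560/590 nm, 72 h incubation. Plates were normalised to DMSO and benzethonium chloride controls. DSS is computed from the area under the fitted dose-response curve (5 or 9 concentrations).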

[9] = system: BT-549; assay: as above
Description: as §2

[10] = system: CAL-120; assay: as above
Description: as §2

[11] = system: CAL-148; assay: as above
Description: as §2

[12] = system: CAL-51; assay: as above
Description: as §2

[13] = system: CAL-85-1; assay: as above
Description: as §2

[14] = system: DU-4475; assay: as above
Description: as §2

[15] = system: HCC1143; assay: as above
Description: as §2

[16] = system: HCC1599; assay: as above
Description: as §2

[17] = system: HCC1937; assay: as above
Description: as §2

[18] = system: HDQ-P1; assay: as above
Description: as §2

[19] = system: Hs578T; assay: as above
Description: as §2

[20] = system: MDA-MB-231; assay: as above
Description: as §2

[21] = system: MDA-MB-436; assay: as above
Description: as §2

[22] = system: MDA-MB-453; assay: as above
Description: as §2

[23] = system: MDA-MB-468; assay: as above
Description: as §2

[24] = system: MFM-223; assay: as above
Description: as §2

[25] = system: SK-BR-3; assay: as above
Description: as §2

Structure (SMILES)	normalised viability ([1]; 10 nM)	normalised viability ([1]; 1000 nM)	normalised viability ([1]; 10000 nM)	normalised viability ([2]; 10 nM)	normalised viability ([2]; 1000 nM)	normalised viability ([2]; 10000 nM)	normalised viability ([3]; 3 nM)	normalised viability ([3]; 30 nM)	normalised viability ([3]; 100 nM)	normalised viability ([4]; 10 nM)	normalised viability ([4]; 1000 nM)	normalised viability ([4]; 10000 nM)	normalised viability ([5]; 10 nM)	normalised viability ([5]; 1000 nM)	normalised viability ([5]; 10000 nM)	normalised viability ([6]; 10 nM)	normalised viability ([6]; 1000 nM)	normalised viability ([6]; 10000 nM)	normalised viability ([7]; 10 nM)	normalised viability ([7]; 1000 nM)	normalised viability ([7]; 10000 nM)	drug sensitivity score [8]	drug sensitivity score [9]	drug sensitivity score [10]	drug sensitivity score [11]	drug sensitivity score [12]	drug sensitivity score [13]	drug sensitivity score [14]	drug sensitivity score [15]	drug sensitivity score [16]	drug sensitivity score [17]	drug sensitivity score [18]	drug sensitivity score [19]	drug sensitivity score [20]	drug sensitivity score [21]	drug sensitivity score [22]	drug sensitivity score [23]	drug sensitivity score [24]	drug sensitivity score [25]
CC(=O)c1c(C)c2cnc(Nc3ccc(N4CCNCC4)cn3)nc2n(C2CCCC2)c1=O	108%	105%	67%	101%	109%	85.2%	104%	99.7%	105%	74.2%	73.5%	61.8%	93.3%	109%	89.3%	38.9%	102%	67.9%	78.1%	36.7%	89.8%	0	0	8.76	0	5.13	0	0	6.22	0	0	0	2.19	9.09	0	8.21	0	0	0
Cn1cc(C2=Nc3cc(NC(=O)C(N)C4CCCCC4)cc4c3C2=CNNC4=O)cn1 (stereo not drawn)	103%	104%	98.9%	80.9%	37.4%	18.6%	89.6%	82.9%	86.3%	85.5%	57.2%	25.6%	94.6%	52.8%	42%	98.2%	55.3%	22.7%	102%	70%	32.8%	–	–	–	–	–	–	–	–	–	–	–	–	–	–	–	–	–	–
COc1cc2c(cc1O)CC[C@@H]1[C@@H]2CC[C@]2(C)[C@@H](O)CC[C@@H]12 [2-methoxyestradiol]	133%	64.3%	48.5%	89.1%	51.7%	17.6%	108%	102%	109%	92.4%	82.7%	37.1%	97.3%	116%	80.5%	113%	54.3%	26.8%	104%	60.5%	44.6%	6.94	10.5	8.63	0	5.78	5.36	6.57	4.05	0	9.5	5.38	9.08	11.2	7.65	9.7	2.79	0	2.73
Cc1sc2c(c1C)C(c1ccc(Cl)cc1)=N[C@@H](CC(=O)OC(C)(C)C)c1nnc(C)n1-2 [(+)JQ1]	118%	95.1%	102%	108%	53.8%	36.9%	104%	77.6%	90.1%	91.1%	67.6%	58.7%	115%	58%	54.6%	109%	62.9%	55.9%	105%	86.3%	99.7%	0	10.7	11.2	9.78	3.04	10.5	17.1	6.54	7.63	6.88	0	11	12.9	0	17.2	5.95	10.1	8.66
Oc1ncnc2[nH]ncc12 [Allopurinol]	114%	116%	102%	105%	86.6%	99.1%	104%	92.1%	97%	119%	123%	108%	87.1%	77.3%	90.1%	87.2%	79.2%	96.2%	100%	101%	93.4%	0	0	0	0	0	0	0	0	0	0	0	0	0	0	0	0	0	0
O=C1CN2Cc3c(ccc(Cl)c3Cl)N=C2N1 [Anagrelide]	126%	132%	130%	88.7%	89.1%	99.4%	89.5%	79.5%	96.1%	83.5%	87.8%	83.2%	112%	93.1%	89.3%	95.6%	82.5%	77.8%	79.2%	97%	99%	0	0	0	0	4.77	0	0	0	0	2.41	0	0	0	0	0	0	0	0
Nc1ncn([C@@H]2O[C@H](CO)[C@@H](O)[C@H]2O)c(=O)n1 [Azacitidine]	104%	102%	95%	115%	95.4%	48.7%	97.2%	116%	117%	72.6%	83.8%	62.3%	111%	72.8%	88.4%	94%	74.4%	56.9%	114%	86.3%	70.3%	0	3.42	0.768	0	0	0	0	0	0	5.11	0	3.33	0	3.01	0	11.3	0	0
O=NN(CCCl)C(=O)NCCCl [Carmustine]	124%	98.8%	125%	88.2%	89.9%	103%	85.3%	83.5%	93%	87.2%	85.4%	86.6%	99%	83.5%	84.2%	95%	93%	71.5%	91.8%	105%	87.5%	0	0	0	0	0	0	0	0	0	0	0	0	0	0	0	0	0	0
CC1=C2C[C@H]3[C@@H](CC=C4C[C@@H](O)CC[C@@]43C)[C@@H]2CC[C@]12O[C@@H]1C[C@H](C)CN[C@H]1[C@H]2C [Cyclopamine]	135%	114%	132%	88.6%	87.2%	92%	102%	103%	107%	96%	107%	99.1%	108%	112%	100%	100%	74%	105%	110%	80.5%	114%	0	0	0	0	0	0	0	0	0	0	0	0	0	0	0	0	0	0

Reference: the supplement of paper PMC4862054
